Like-named read-outs stand apart in the source and are kept apart here.
What was measured:
[1] = system: PC-3 (human prostate adenocarcinoma); experiment: Cytotoxicity, sulforhodamine B (SRB) microculture assay; type: cell-based; settings: for inhibition at 25 µM: read-out: % of Inhibition (cytotoxic screening)
Description: (§1) The cytotoxicity of all compounds was tested against six cancer cell lines: U251 (human glioblastoma cell line), PC-3 (human prostate adenocarcinoma), K562 (human chronic myelogenous leukemia), HCT-15 (human colon adenocarcinoma), MCF-7 (human mammary adenocarcinoma), and SKLU-1 (human lung adenocarcinoma). Cell lines were supplied by the U.S. National Cancer Institute (NCI). The cell lines were cultured in an RPMI-1640 medium supplemented with 10% fetal bovine serum, […] L-glutamine, 10,000 units/mL penicillin G sodium, 10,000 µg/mL streptomycin sulfate, 25 µg/mL amphotericin B (Invitrogen/Gibco™, Thermo Fisher Scientific, Waltham, MA, USA), and 1% non-essential amino acids (Gibco). They were maintained at 37 °C in a humidified atmosphere with 5% CO2. […] The human tumor cytotoxicity was determined using the protein-binding dye sulforhodamine B (SRB) in a microculture assay to measure cell growth, as described in the protocols established by the NCI [39, 40, 41].

[2] = system: U251 (human glioblastoma cell line); experiment: as above; type: cell-based; settings: for inhibition at 25 µM: U-251, 25 μM, read-out: % of Inhibition (cytotoxic screening)
Description: as §1

[3] = system: K562 (human chronic myelogenous leukemia); experiment: as above; type: cell-based; settings: for inhibition at 25 µM: read-out: % of Inhibition (cytotoxic screening)
Description: as §1

[4] = system: HCT-15 (human colon adenocarcinoma); experiment: as above; type: cell-based; settings: for inhibition at 25 µM: read-out: % of Inhibition (cytotoxic screening)
Description: as §1

[5] = system: SKLU-1 (human lung adenocarcinoma); experiment: as above; type: cell-based; settings: for inhibition at 25 µM: SK-LU-1, 25 μM, read-out: % of Inhibition (cytotoxic screening)
Description: as §1

[6] = system: MCF-7 (human mammary adenocarcinoma); experiment: as above; type: cell-based; settings: for inhibition at 25 µM: MCF7, 25 μM, read-out: % of Inhibition (cytotoxic screening)
Description: as §1

[7] = Cytotoxicity towards healthy cell line; type: cell-based, monkey; settings: monkey, COS-7 kidney cells; COS7; 25 μM; read-out: % of Inhibition (cytotoxic screening)
[8] = system: lipid peroxidation in rat brain homogenate; experiment: Inhibition of lipid peroxidation (TBARS) in rat brain homogenate, FeSO4-induced; type: biochemical; settings: for Inhibition (%) of lipid peroxidation / TBARS / IC50: mean ± SEM, n = 3; for IC50: rat brain homogenate, TBARS
Description: Adult male Wistar rats (200–250 g) were provided by the Instituto de Fisiología Celular, Universidad Nacional Autónoma de México (UNAM). The procedures and care of animals were conducted in conformity with the Mexican Official Norm for Animal Care and Handling NOM-062-ZOO-1999. They were maintained at 23 ± 2 °C on a 12/12 h light-dark cycle with ad libitum access to food and water.
Animal sacrifice was carried out avoiding unnecessary pain. The rats were sacrificed with CO2. The cerebral tissue (whole brain) was rapidly dissected and homogenized in phosphate-buffered saline (PBS) solution (0.2 g of KCl, 0.2 g of KH2PO4, 8 g of NaCl, and 2.16 g of NaHPO4.7H2O/L, pH adjusted to 7.4) as described elsewhere to produce a 1/10 (w/v) homogenate. The homogenate was centrifuged at 800 rcf (relative centrifugal field) for 10 min. The supernatant protein content was measured using Folin and Ciocalteu’s phenol reagent and adjusted with PBS at 2.666 mg of protein/mL.
As an index of lipid peroxidation, TBARS levels were measured using rat brain homogenates according to the method described by Ng and co-workers, with some modifications. A supernatant (375 µL) was added with 50 µL of 20 µM EDTA and 25 µL of each sample concentration dissolved in DMSO (25 µL of DMSO for the control group) and incubated at 37 °C for 30 min. The lipid peroxidation was started adding 50 µL of freshly prepared 100 µM FeSO4 solution (final concentration 10 µM) and incubated at 37 °C for 1h. The TBARS measurements were obtained as described by Ohkawa and co-workers, with some modifications. To each tube 500 µL of TBA reagent (0.5% 2-thiobarbituric acid in 0.05 N NaOH and 30% trichloroacetic acid, in 1:1 ratio) was added and the final suspension was cooled on ice for 10 min, centrifuged at 13,400 rcf for 5 min and heated at 80 °C in a water bath for 30 min. After cooling at room temperature, the absorbance of 200 µL of supernatant was measured at λ = 540 nm in a Microplate Reader Synergy/HT BIOTEK Instrument, Inc., Winooski, VT, USA. The concentration of TBARS was calculated by interpolation on a standard curve of tetra-methoxypropane (TMP) as a precursor of MDA [38]. Results are expressed as n moles of TBARS per mg of protein. The inhibition ratio (IR [%]) was calculated using the formula IR = (C − E) × 100/C, where C is the control absorbance and E is the sample absorbance. Butylated hydroxytoluene (BHT) and α tocopherol were used as positive standards. All data are presented as mean ± standard error (SEM). The data were analyzed by one-way analysis of variance (ANOVA) followed by Dunnett’s test for comparison against a control. Values of p ≤ 0.05 (*) and p ≤ 0.01 (**) were considered statistically significant.

[9] = system: healthy monkey kidney cell line (COS-7); experiment: Cytotoxicity towards healthy cell line; type: cell-based; settings: COS7
[10] = concentration 1 (unit not given)
[11] = concentration 10 (unit not given)
[12] = concentration 100 (unit not given)

Row | Compound | inhibition at 25 µM ([1]; Homo sapiens, 25 μM) [%] | inhibition at 25 µM ([2]; Homo sapiens) [%] | inhibition at 25 µM ([3]; Homo sapiens, 25 μM) [%] | inhibition at 25 µM ([4]; Homo sapiens, 25 μM) [%] | inhibition at 25 µM ([5]; Homo sapiens) [%] | inhibition at 25 µM ([6]; Homo sapiens) [%] | inhibition at 25 µM [7] [%] | % of Inhibition (lipoperoxidation screening) [8, 10] [%] | % of Inhibition (lipoperoxidation screening) [8, 11] [%] | % of Inhibition (lipoperoxidation screening) [8, 12] [%] | % of Inhibition (cytotoxic screening) ([1]; 25 μM) [%] | % of Inhibition (cytotoxic screening) ([2]; 25 μM) [%] | % of Inhibition (cytotoxic screening) ([3]; 25 μM) [%] | % of Inhibition (cytotoxic screening) ([5]; 25 μM) [%] | % of Inhibition (cytotoxic screening) ([6]; 25 μM) [%] | % of Inhibition (cytotoxic screening) ([9]; 25 μM) [%] | also measured
1 | COc1cc(/C=C/C(=O)CC(=O)/C=C/c2ccc(O)c(OC)c2)ccc1O [Curc, Curcumin] | 94.4 | 67.1 | 80.1 | 80 | 94.5 | 82.4 | 71.6 |  |  |  |  |  |  |  |  |  | 
2 | O=C(/C=C(O)/C=C/c1ccco1)/C=C/c1ccco1 [FuranCurc, Furancurcumin] | 10.8 | 0 | 6.4 | 0 | 0 | 0 | 46.2 | −6.24 | 1.59 | 93.46 |  |  |  |  |  |  | Inhibition (%) of lipid peroxidation ([8]; 13.34 μM): 5.6 ± 5.31%; TBARS ([8]; 13.34 μM): 9.385 ± 0.416 nmol/mg prot.; Inhibition (%) of lipid peroxidation ([8]; 17.78 μM): 13.14 ± 5.84%; TBARS ([8]; 17.78 μM): 8.634 ± 0.462 nmol/mg prot.; Inhibition (%) of lipid peroxidation ([8]; 23.71 μM): 25.93 ± 9.98%; TBARS ([8]; 23.71 μM): 7.356 ± 0.928 nmol/mg prot.; Inhibition (%) of lipid peroxidation ([8]; 31.62 μM): 48.97 ± 13.11%; TBARS ([8]; 31.62 μM): 5.091 ± 1.356 nmol/mg prot.; Inhibition (%) of lipid peroxidation ([8]; 42.17 μM): 64.24 ± 10.44%; TBARS ([8]; 42.17 μM): 3.590±1.114 nmol/mg prot.; Inhibition (%) of lipid peroxidation ([8]; 56.23 μM): 81.06 ± 1.43%; TBARS ([8]; 56.23 μM): 1.891±0.178 nmol/mg prot.; Inhibition (%) of lipid peroxidation ([8]; 74.13 μM): 88.25 ± 1.57%; TBARS ([8]; 74.13 μM): 1.167±0.148 nmol/mg prot.; IC50 [8]: 33.9 ± 4.65 µM; IC50 ([1]; Homo sapiens): 35.9 ± 3.9 µM; IC50 ([2]; Homo sapiens, U-251): 11.7 ± 2.9 µM; IC50 ([5]; Homo sapiens, SK-LU-1): 15.5 ± 2 µM
3 | O=C(C=C([O-])/C=C/c1ccco1)/C=C/c1ccco1.O=C(C=C([O-])/C=C/c1ccco1)/C=C/c1ccco1.[Cu+2] [FuranCurc-Cu] |  |  |  |  |  |  |  | 0.83 | 27.46 | 88.94 | 100 | 100 | 90.1 | 95.0 | 92.8 | 100 | IC50 [1]: 3 ± 0.1 µM; IC50 [2]: 4 ± 0.3 µM; % of Inhibition (cytotoxic screening) ([4]; 25 μM): 72.4%; IC50 [5]: 6.5 ± 0.2 µM
4 | Cn1cccc1/C=C/C(=O)/C=C(O)/C=C/c1cccn1C [N-methyl-pyrCurc, N-methylpyrrolcurcumin] | 60.4 | 52.8 | 65.8 | 18.1 | 100 | 99.9 | 100 | 13.71 | 17.41 | 84.75 |  |  |  |  |  |  | IC50 ([2]; Homo sapiens, U-251): 25.8 ± 2.7 µM; IC50 ([3]; Homo sapiens): 12.9 ± 1 µM; IC50 ([4]; Homo sapiens): 22.4 ± 2.4 µM; IC50 ([5]; Homo sapiens, SK-LU-1): 13 ± 1.9 µM; IC50 ([6]; Homo sapiens, MCF7): 27.3 ± 4.3 µM
5 | Cn1cccc1/C=C/C(=O)C=C([O-])/C=C/c1cccn1C.Cn1cccc1/C=C/C(=O)C=C([O-])/C=C/c1cccn1C.[Cu+2] [N-methyl-pyrCurc-Cu] |  |  |  |  |  |  |  | −7.20 | 38.48 | 71.20 | 64.99 | 71.62 | 74.67 | 100 | 100 | 100 | IC50 [2]: 10.6 ± 1 µM; IC50 [3]: 5.9 ± 1.5 µM; IC50 [4]: 12.9 ± 2.1 µM; % of Inhibition (cytotoxic screening) ([4]; 25 μM): 100%; IC50 [5]: 10.3 ± 1 µM; IC50 [6]: 10.8 ± 1.7 µM
6 | Cn1cccc1/C=C/C(=O)C=C([O-])/C=C/c1cccn1C.Cn1cccc1/C=C/C(=O)C=C([O-])/C=C/c1cccn1C.[Mg+2] [N-methyl-pyrCurc-Mg] |  |  |  |  |  |  |  | −4.22 | 12.24 | 69.70 |  |  |  |  |  |  | % of Inhibition (cytotoxic screening) ([1]; 12.5 μM): 1.4%; % of Inhibition (cytotoxic screening) ([2]; 12.5 μM): 19.5%; % of Inhibition (cytotoxic screening) ([3]; 12.5 μM): 28.8%; % of Inhibition (cytotoxic screening) ([4]; 12.5 μM): 15.8%; % of Inhibition (cytotoxic screening) ([5]; 12.5 μM): 18.1%; % of Inhibition (cytotoxic screening) ([6]; 12.5 μM): 35.7%; % of Inhibition (cytotoxic screening) ([9]; 12.5 μM): 23.4%
7 | O=C(C=C([O-])/C=C/c1cccs1)/C=C/c1cccs1.O=C(C=C([O-])/C=C/c1cccs1)/C=C/c1cccs1.[Cu+2] [ThiopheneCurc-Cu] |  |  |  |  |  |  |  | 5.67 | 51.00 | 53.96 | 63.6 | 58.2 | 84.4 | 91.0 | 57.9 | 0 | Inhibition (%) of lipid peroxidation ([8]; 3.16 μM): 12.51 ± 3.57%; TBARS ([8]; 3.16 μM): 4.665 ± 0.144 nmol/mg prot.; Inhibition (%) of lipid peroxidation ([8]; 5.62 μM): 31.7 ± 2.33%; TBARS ([8]; 5.62 μM): 3.651 ± 0.200 nmol/mg prot.; Inhibition (%) of lipid peroxidation ([8]; 10 μM): 49.46 ± 1.96%; TBARS ([8]; 10 μM): 2.693 ± 0.029 nmol/mg prot.; Inhibition (%) of lipid peroxidation ([8]; 17.78 μM): 57.25 ± 1.19%; TBARS ([8]; 17.78 μM): 2.280 ± 0.052 nmol/mg prot.; Inhibition (%) of lipid peroxidation ([8]; 31.62 μM): 55.9 ± 1.51%; TBARS ([8]; 31.62 μM): 2.351 ± 0.046 nmol/mg prot.; Inhibition (%) of lipid peroxidation ([8]; 56.23 μM): 58.14 ± 2.66%; TBARS ([8]; 56.23 μM): 2.225 ± 0.055 nmol/mg prot.; IC50 [8]: 10.3 ± 0.59 µM; IC50 [3]: 38.6 ± 8.1 µM
